Patent publication EP1203770A1 (priority 1992, dated 1994)
Where “and” joins values, the source holds several entries; their conditions need not be identical. Equal entries are not always repeated.

Target: T1, HIV-1 protease (Human immunodeficiency virus type 1 group M subtype B, UniProt P04585)
T1 construct: The protease (or proteinase), consisting of only 99 amino acids, is among the smallest enzymes known
Test: In vitro HIV protease inhibitory assay (HIV Protease FITC Assay)
Assay type: biochemical
Details: for inhibition at 10 µM / inhibition at 100 µM / inhibition at 1 µM / inhibition at 0.41 µM / inhibition at 1.23 µM / inhibition at 3.7 µM / inhibition at 11 µM / inhibition at 33 µM / inhibition at 0.123 µM / inhibition at 0.37 µM / inhibition at 1.1 µM / inhibition at 3.3 µM / inhibition at 30 µM: read-out: HIV-1 Protease % Inhib; for inhibition at 1 µM: HIV-1 Dose 1.000 uM; for Ki: read-out: HIV-1 FITC Ki; for inhibition at 0.41 µM: HIV-1 Dose 0.410 uM; for inhibition at 1.23 µM: HIV-1 Dose 1.230 uM; for inhibition at 3.7 µM: HIV-1 Dose 3.700 uM; for inhibition at 11 µM: HIV-1 Dose 11.000 uM; for inhibition at 33 µM: HIV-1 Dose 33.000 uM; for inhibition at 0.123 µM: HIV-1 Dose 0.123 uM; for inhibition at 0.37 µM: HIV-1 Dose 0.370 uM; for inhibition at 1.1 µM: HIV-1 Dose 1.100 uM; for inhibition at 3.3 µM: HIV-1 Dose 3.300 uM; for inhibition at 30 µM: HIV-1 Dose 30.000 uM
In short: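 Biotin/FITC-labelled peptide substrate cleaved by HIV-1 protease for 1 h at room temperature in the dark, in 0.1 M sodium acetate pH 5.5, 1.0 M NaCl, 0.05% NP-40. Uncleaved substrate captured on avidin beads and separated by filtration; fluorescence gave % inhibition.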

| Compound | inhibition at 10 µM (HIV-1 Dose 10.000 uM) [%] | inhibition at 100 µM (HIV-1 Dose 100.000 uM) [%] | inhibition at 1 µM [%] | Ki [nM] | inhibition at 0.41 µM [%] | inhibition at 1.23 µM [%] | inhibition at 3.7 µM [%] | inhibition at 11 µM [%] | inhibition at 33 µM [%] | further results |
| --- | --- | --- | --- | --- | --- | --- | --- | --- | --- | --- |
| CCC(CCCc1ccccc1)c1cc(O)c(C(c2ccccc2)C2CC2)c(=O)o1 (stereo not drawn) [Example 93, 3-(Cyclopropyl-phenyl-methyl)-6-(1-ethyl-4-phenyl-butyl)-4-hydroxy-pyran-2-one] | 72.6 | 79.3 | – | – | – | – | – | – | – | HIV-1 Protease % Inhib (HIV-1 Dose 10.000 uM): 67.65% and 71.27%; HIV-1 Protease % Inhib (HIV-1 Dose 100.000 uM): 59.48% and 67.68%; HIV-1 Protease % Inhib (dose not given): <10% |
| O=c1oc(CCCC2CCCCC2)cc(O)c1C(c1ccccc1)C1CC1 (stereo not drawn) [Example 94, 6-(3-Cyclohexyl-propyl)-3-(cyclopropyl-phenyl-methyl)-4-hydroxy-pyran-2-one] | 25 | 52.4 | < 10 | – | – | – | – | – | – | – |
| CCC(CCC1CCCCC1)c1cc(O)c(C(c2ccccc2)C2CC2)c(=O)o1 (stereo not drawn) [Example 95, 6-(3-Cyclohexyl-1-ethyl-propyl)-3-(cyclopropyl-phenyl-methyl)-4-hydroxy-pyran-2-one] | 33.6 | 41 | < 10 | – | – | – | – | – | – | – |
| CCC(c1ccccc1)c1c(O)cc(CCC2CC2)oc1=O (stereo not drawn) [Example 96, 6-(2-Cyclopropyl-ethyl)-4-hydroxy-3-(1-phenyl-propyl)-pyran-2-one] | 77 | 90.5 | 27.9 | 1400 | – | – | – | – | – | – |
| C=CCC(CC=C)c1cc(O)c(C(c2ccccc2)C2CC2)c(=O)o1 (stereo not drawn) [Example 97, 6-(1-Allyl-but-3-enyl)-3-(cyclopropyl-phenyl-methyl)-4-hydroxy-pyran-2-one] | 99.6 | 110 | 75.9 | 100 | – | – | – | – | – | – |
| C=CCCc1cc(O)c(C(c2ccccc2)C2CC2)c(=O)o1 (stereo not drawn) [Example 98, 6-But-3-enyl-3-(cyclopropyl-phenyl-methyl)-4-hydroxy-pyran-2-one] | 93.5 | 110 | 50.8 | – | – | – | – | – | – | – |
| CCC(CCc1ccccc1)c1cc(O)c(C(c2ccccc2)C2CC2)c(=O)o1 (stereo not drawn) [Example 99, 3-(Cyclopropyl-phenyl-methyl)-6-(1-ethyl-3-phenyl-propyl)-4-hydroxy-pyran-2-one] | 99.6 | 90.7 | 71.5 | – | – | – | – | – | – | – |
| CCC(c1ccccc1)c1c(O)c(Br)c(CCC2CC2)oc1=O (stereo not drawn) [Example 100, 5-Bromo-6-(2-cyclopropyl-ethyl)-4-hydroxy-3-(1-phenyl-propyl)-pyran-2-one] | 94.6 | 104 | 38.3 | 480 | – | – | – | – | – | – |
| CCC(c1ccccc1)c1c(O)cc(C(Cc2ccccc2)Cc2ccccc2)oc1=O (stereo not drawn) [Example 101, 6-(1-Benzyl-2-phenyl-ethyl)-4-hydroxy-3-(1-phenyl-propyl)-pyran-2-one] | 78.8 | 97.9 | 52.2 | – | – | – | – | – | – | – |
| COCCOCCCc1cc(O)c(C(c2ccccc2)C2CC2)c(=O)o1 (stereo not drawn) [Example 102, 3-(Cyclopropyl-phenyl-methyl)-4-hydroxy-6-(3-(2-methoxy-ethoxy)-propyl)-pyran-2-one] | 62.2 | 105 | 33.8 | 1520 | – | – | – | – | – | – |
| COCCOCCCc1oc(=O)c(C(c2ccccc2)C2CC2)c(O)c1CCOCCOC (stereo not drawn) [Example 103] | 31.3 | 83 | 26.6 | – | – | – | – | – | – | – |
| CCCc1cc(O)c(C(c2ccccc2)C2CC2)c(=O)o1 (stereo not drawn) [Example 104, 3-(Cyclopropyl-phenyl-methyl)-4-hydroxy-6-propyl-pyran-2-one] | 73.2 | 87.3 | 50 | – | – | – | – | – | – | – |
| CCC(c1ccccc1)c1c(O)c(Br)c(CCc2ccccc2)oc1=O (stereo not drawn) [Example 105, 5-Bromo-4-hydroxy-6-phenylethyl-3(1-phenyl-propyl)-pyran-2-one] | – | 108 | – | 458 | 14.3 | 38.9 | 75.3 | 103 | 110 | – |
| CCC(CCOCCOC)c1cc(O)c(C(c2ccccc2)C2CC2)c(=O)o1 (stereo not drawn) [Example 106, 3-(Cyclopropyl-phenyl-methyl)-6-(1-ethyl-3-(2-methoxy-ethoxy)-propyl)-4-hydroxy-pyran-2-one] | – | 119 | – | 58 | 57.4 | 82.1 | 101 | 111 | 115 | – |
| COCCOCCC(Cc1ccccc1)c1cc(O)c(C(c2ccccc2)C2CC2)c(=O)o1 (stereo not drawn) [Example 107, 6-(1-Benzyl-3-(2-methoxy-ethoxy)-propyl)-3-(cyclopropyl-phenyl-methyl)-4-hydroxy-pyran-2-one] | – | 110 | – | 41 | 50 | 80.3 | 100 | 103 | 109 | – |
| COCCOCCOCCCc1cc(O)c(C(c2ccccc2)C2CC2)c(=O)o1 (stereo not drawn) [Example 108] | – | 118 | – | 607 | < 10 | 20.4 | 46.9 | 76.7 | 84.8 | – |
| CCCc1oc(=O)c(C(CC)c2ccccc2)c(O)c1Br (stereo not drawn) [Example 109, 5-Bromo-4-hydroxy-3-(1-phenyl-propyl)-6-propyl-pyran-2-one] | – | 108 | – | 203 | 22.2 | 51.8 | 78.9 | 106 | 105 | – |
| CCC(CC)c1oc(=O)c(C(c2ccccc2)C2CC2)c(O)c1CCOCCOC (stereo not drawn) [Example 110, 3-(Cyclopropyl-phenyl-methyl)-6-(1-ethyl-propyl)-4-hydroxy-5-(2-(2-methoxy-ethoxy)ethyl)-pyran-2-one] | – | 84.3 | – | – | < 10 | 16.1 | 43.2 | 71.2 | 88.6 | – |
| CCC(Cc1ccccc1)c1oc(=O)c(C(CC)c2ccccc2)c(O)c1Br (stereo not drawn) [Example 111, 6-(1-Benzyl-propyl)-5-bromo-4-hydroxy-3-(1-phenyl-propyl)-pyran-2-one] | – | 109 | – | 255 | 41.7 | 66.2 | 92.2 | 103 | 102 | – |
| COCCOCCOCCc1c(C(CC2CC2)CC2CC2)oc(=O)c(C(c2ccccc2)C2CC2)c1O (stereo not drawn) [Example 112] | – | 46.5 | – | – | < 10 | < 10 | 10.4 | 18.9 | 37.1 | – |
| C=CC(C1=C(O)CC2(CCC3(CC2)OCCO3)OC1=O)c1ccccc1 (stereo not drawn) [Example 113, 12-Hydroxy-11-(1-phenyl-allyl)-1,4,9-trioxa-dispiro[4.2.5.2]pentadec-11-en-10-one] | – | 107 | – | 2560 | < 10 | 15.3 | 42.8 | 79.7 | 101 | – |
| CCC(C1=C(O)CC2(CCC3(CC2)OCCO3)OC1=O)c1ccccc1 (stereo not drawn) [Example 114, 12-Hydroxy-11-(1-phenyl-propyl)-1,4,9-trioxa-dispiro[4.2.5.2]pentadec-11-en-10-one] | – | 55.4 | – | 4290 | < 10 | < 10 | 25.8 | 63.5 | 67.5 | – |
| CCC(C1=C(O)CC2(CCC(=O)CC2)OC1=O)c1ccccc1 (stereo not drawn) [Example 115, 4-Hydroxy-3-(1-phenyl-propyl)-1-oxa-spiro[5.5]undec-3-ene-2,9-dione] | – | 94.8 | – | 1160 | < 10 | 27.1 | 56.9 | 91.5 | 103 | – |
| CCC(C1=C(O)CC2(CCC(O)CC2)OC1=O)c1ccccc1 (stereo not drawn) [Example 116, 4,9-Dihydroxy-3-(1-phenyl-propyl)-1-oxa-spiro[5.5]undec-3-en-2-one] | 62 | – | – | – | – | – | – | – | – | inhibition at 0.123 µM: < 10%; inhibition at 0.37 µM: < 10%; inhibition at 1.1 µM: < 10%; inhibition at 3.3 µM: 31.1%; inhibition at 30 µM: 89.9% |
| O=c1oc(CC(O)c2ccco2)cc(O)c1C(c1ccccc1)C1CC1 (stereo not drawn) [Example 117, 3-(Cyclopropyl-phenyl-methyl)-6-(2-furan-2-yl-2-hydroxy-ethyl)-4-hydroxy-pyran-2] | 87 | – | – | – | – | – | – | – | – | inhibition at 0.123 µM: < 10%; inhibition at 0.37 µM: < 10%; inhibition at 1.1 µM: 17%; inhibition at 3.3 µM: 51.2%; inhibition at 30 µM: 101% |
| O=c1oc(CCCC(F)(F)F)cc(O)c1C(c1ccccc1)C1CC1 (stereo not drawn) [Example 118, 3-(Cyclopropyl-phenyl-methyl)-4-hydroxy-6-(4,4,4-trifluoro-butyl)-pyran-2-one] | 83.9 | – | – | – | – | – | – | – | – | inhibition at 0.123 µM: < 10%; inhibition at 0.37 µM: < 10%; inhibition at 1.1 µM: 20%; inhibition at 3.3 µM: 52.4%; inhibition at 30 µM: 102% |
